Values joined by “and” are separate entries in the source; they are usually repeats but may differ in a detail not shown here. Equal values may be shown once. Active and inactive are the calls of the source.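 Rule for the calls: active = IC50 at or below 20 µM in the dose response; inactive = the rest.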
System: HL-1 cardiomyocytes, 2-deoxyglucose injury, ATPlite viability, 2 h
Assay: cardiomyocyte ATP preservation under glycolysis block – HL-1 cells, 2-deoxyglucose, set 2, SAR follow-up (AID 624473)

| Compound | IC50 |
| --- | --- |
| COc1ccc2c(c1OC)C(=O)N1c3ccccc3C(=O)N(c3cccc(C)c3)C21 (stereo not given) | 16.5 µM |
| COc1ccc2c(c1OC)C(=O)N1c3ccccc3C(=O)N(Cc3cccc(Cl)c3)C21 (stereo not given) | 8.52 µM |
| COc1cc(-c2cc(C(=O)Nc3cccc(C(F)(F)F)c3)c3ccccc3n2)cc(OC)c1OC | > 79 µM (inactive) |
| COc1ccc(NC(=O)c2cc(-c3cc(OC)c(OC)c(OC)c3)nc3ccccc23)cc1 | > 79 µM (inactive) |
| COc1ccc2c(c1OC)C(=O)N1c3ccccc3C(=O)N(c3cccc(Br)c3)C21 (stereo not given) | 3.64 µM and 34.8 µM (inactive) |
| COc1cc(-c2cc(C(=O)Nc3cccc(C(C)=O)c3)c3cc(Cl)ccc3n2)cc(OC)c1OC | > 79 µM (inactive) |
| COc1ccc2c(c1OC)C(=O)N1c3ccccc3C(=O)N(c3ccccc3)C21 (stereo not given) | 5.09 µM |
| COc1cccc(CNC(=O)c2cc(-c3cc(OC)c(OC)c(OC)c3)nc3ccccc23)c1 | 12.2 µM |
| COc1cccc(CNC(=O)c2cc(-c3ccc(OC)c(OC)c3)nc3ccccc23)c1 | 9.42 µM |
| COc1cccc(NC(=O)c2cc(-c3cc(OC)c(OC)c(OC)c3)nc3ccccc23)c1 | > 79 µM (inactive) |
| COc1ccc2c(c1OC)C(=O)N1c3ccccc3C(=O)N(c3ccc(C(C)(C)C)cc3)C21 (stereo not given) | > 79 µM (inactive) |
| CC(=O)c1cccc(NC(=O)c2cc(-c3ccccc3)nc3ccccc23)c1 | 14 µM |
| COc1ccc2c(c1OC)C(=O)N1c3ccccc3C(=O)N(c3cccc(Cl)c3)C21 (stereo not given) | 7.57 µM |
| CCN(CC(=O)Nc1ccc(OC)cc1)C(=O)c1cc(-c2cccs2)nn1-c1ccccc1 | 8.33 µM and 9.6 µM |
| O=C1c2ccccc2N2C(=O)c3ccccc3C2N1c1ccccc1 (stereo not given) | > 79 µM (inactive) |
| COc1cccc(-c2cc(C(=O)Nc3cccc(C(C)=O)c3)c3ccccc3n2)c1 | 9.47 µM |
| COc1cccc(N2C(=O)c3ccccc3N3C(=O)c4c(ccc(OC)c4OC)C23)c1 (stereo not given) | 15.6 µM |
| COc1ccc(-c2cc(C(=O)Nc3cccc(C(C)=O)c3)c3ccccc3n2)cc1OC | 19.8 µM (inactive) |

| Compound | IC50 |
| --- | --- |
| COc1ccc2c(c1OC)C(=O)N1c3ccccc3C(=O)N(Cc3ccccc3Cl)C21 (stereo not given) | 4 µM |
| COc1cc(-c2cc(C(=O)Nc3ccccc3)c3ccccc3n2)cc(OC)c1OC | 8.04 µM |
| O=C1c2ccccc2N2C(=O)c3ccccc3C2N1c1cccc(Br)c1 (stereo not given) | > 79 µM (inactive) |
| COc1ccc2c(c1OC)C(=O)N1c3ccccc3C(=O)N(c3cccc(C(F)(F)F)c3)C21 (stereo not given) | 19.8 µM |
| COc1cc(-c2cc(C(=O)Nc3ccc(C(C)=O)cc3)c3ccccc3n2)cc(OC)c1OC | 6.65 µM |
| COc1ccc2c(c1OC)C(=O)N1c3ccccc3C(=O)N(c3cccc(F)c3)C21 (stereo not given) | 13.9 µM |
| COc1cc(-c2cc(C(=O)Nc3cccc(F)c3)c3ccccc3n2)cc(OC)c1OC | > 79 µM (inactive) |
| CCN(CC(=O)Nc1ccc(OC)cc1)C(=O)c1cc(-c2cc(OC)c(OC)c(OC)c2)nc2ccccc12 | 22.6 µM (inactive) |
| COc1cc(-c2cc(C(=O)Nc3cccc(C(C)=O)c3)c3ccccc3n2)cc(OC)c1OC | 7.15 µM and 10.3 µM |
| COc1ccc2c(c1OC)C(=O)N1c3ccccc3C(=O)N(c3ccc(Br)cc3)C21 (stereo not given) | 1.95 µM |
| CCOC(=O)c1cccc(NC(=O)c2cc(-c3cc(OC)c(OC)c(OC)c3)nc3ccccc23)c1 | 4.29 µM |
| COc1cccc(N2C(=O)c3ccccc3N3C(=O)c4ccccc4C23)c1 (stereo not given) | > 79 µM (inactive) |
| COc1ccc(N2C(=O)c3ccccc3N3C(=O)c4c(ccc(OC)c4OC)C23)cc1 (stereo not given) | 18.2 µM |
| COc1ccc(-c2cc(C(=O)Nc3cccc(C(C)=O)c3)c3ccccc3n2)cc1 | > 79 µM (inactive) |
| COc1ccc2c(c1OC)C(=O)N1c3ccccc3C(=O)N(c3ccc(C)cc3)C21 (stereo not given) | 3.03 µM |
| COc1cc(-c2cc(C(=O)Nc3cccc(C)c3)c3ccccc3n2)cc(OC)c1OC | > 79 µM (inactive) |
| COc1cc(-c2cc(C(=O)Nc3cccc(Cl)c3)c3ccccc3n2)cc(OC)c1OC | > 79 µM (inactive) |
